Consider 39 compounds from patent US8815909B2, “Diaminocyclohexane compounds and uses thereof” (Bristol-Myers Squibb Company, priority 2011, dated 2014).

The target in one assay is T1, human Y4 receptor (Homo sapiens, UniProt P50391).
T1 construct: expressed in transfected cells
T1 sequence (P50391 whole entry): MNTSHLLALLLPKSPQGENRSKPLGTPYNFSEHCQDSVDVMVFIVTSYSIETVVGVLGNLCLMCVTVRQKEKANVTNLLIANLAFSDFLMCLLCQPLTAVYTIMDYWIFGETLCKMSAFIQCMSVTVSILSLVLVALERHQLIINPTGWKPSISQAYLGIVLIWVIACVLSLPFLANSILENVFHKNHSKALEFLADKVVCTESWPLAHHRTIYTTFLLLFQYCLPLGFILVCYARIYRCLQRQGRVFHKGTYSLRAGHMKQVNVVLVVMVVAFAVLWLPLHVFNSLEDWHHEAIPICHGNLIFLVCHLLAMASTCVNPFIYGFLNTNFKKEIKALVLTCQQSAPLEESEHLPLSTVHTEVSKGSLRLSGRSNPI
Nature of the assay: NPY4 cAMP HTRF Agonist Assay (inhibitory cAMP assay, Gi activation by Y4 agonism). The assay is classed as cell-based. Particulars: TABLE 2, R2 is Phenyl-CN; read-out: hY4 CAMP EC50. In outline: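 Y4 agonism read as lowered forskolin-stimulated cAMP (HTRF, 1 h detection at room temperature). Stable human Y4 CHO clone, 5000 cells/well, incubated 30 min at room temperature with compounds plus forskolin and IBMX in PBS.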
In the case of `CC(=O)Nc1cccc(-c2ccnc(N[C@@H]3CCCC[C@H]3N[C@H]3CCCN(c4ccc(C#N)cc4)C3)c2)c1` [Example 251], the 50% effective concentration (EC50) is 1 nM. On the same count and under the same terms, the figure for `N#Cc1ccc(N2C[C@@H]3C[C@H](N[C@@H]4CCCC[C@H]4Nc4cc(-c5ccc(OC(F)F)cc5)ccn4)[C@H]2C3)cc1` [Example 227] is 16 nM; for `N#Cc1ccc(N2CCC[C@H](N[C@@H]3CCCC[C@H]3Nc3cc(-c4cccc5cn[nH]c45)ccn3)C2)cc1` [Example 209] it is 83 nM.

Staying with this assay, now noted: TABLE 5, R2 is Pyridinyl-CF3; read-out: hY4 CAMP EC50.
With `O=C(O)c1cccc(-c2cnc(N[C@@H]3CCCC[C@H]3N[C@H]3CCCN(c4ccc(C(F)(F)F)nc4)C3)o2)c1` [Example 324], the EC50 was determined as 52 nM.

Regarding `NC(=O)c1cccc(-c2cnc(N[C@@H]3CCCC[C@H]3N[C@H]3CCCN(c4ccc(C(F)(F)F)cn4)C3)o2)c1` [Example 318], the EC50 was 1 nM. On the same count and under the same terms, the value for `C[C@]1(N[C@@H]2CCCC[C@H]2Nc2cc(-c3cccc(C(N)=O)c3)ccn2)CCCN(c2ccc(C(F)(F)F)nc2)C1` [Example 323] was 17 nM.

The same assay, now with this note: TABLE 7, R2 is Pyridinyl-oxadiazole-CH3; read-out: hY4 CAMP EC50.
Consider `Cc1nc(-c2ccc(N3CCC[C@H](N[C@@H]4CCCC[C@H]4Nc4ncc(-c5ccc(OC(F)(F)F)cc5)o4)C3)cn2)no1` [Example 394], for which the EC50 came to 427 nM. Still for that read-out and setting: the figure for `Cc1nc(-c2ccc(N3CCC[C@H](N[C@@H]4CCCC[C@H]4Nc4ncc(-c5cccc(C(=O)NC6CC6)c5)o4)C3)cn2)no1` [Example 387] is 78 nM.

Staying with this assay, now noted: human Y4 receptor, cAMP; read-out: hY4 CAMP EC50.
For the compound `C[C@]1(N[C@@H]2CCCC[C@H]2Nc2ncc(-c3cccc(C(N)=O)c3)o2)CCCN(c2ccc(-c3noc(C4CC4)n3)nc2)C1` [Example 449], the EC50 worked out at 5 nM.

Regarding `FC(F)(F)Oc1ccc(-c2cnc(N[C@@H]3CCCC[C@H]3N[C@H]3C[C@@H]4C[C@H]3N(c3ncc(C(F)(F)F)cn3)C4)o2)cc1` [Example 423], the EC50 was 222 nM. On the same count and under the same terms, the figure for `Cc1nnc(-c2ccc(N3CCCC(N[C@@H]4CCCC[C@H]4Nc4cc(-c5cccc(OC(F)(F)F)c5)ccn4)C3)cc2)o1` (stereo partly drawn) [Example 358] is 17 nM; for `C[C@]1(N[C@@H]2CCCC[C@H]2Nc2ncc(-c3cccc(C(N)=O)c3)o2)CCCN(c2ccc(C(=N)NC(=O)C3CC3)nc2)C1` [Example 445] it is 4 nM. On the same count and under the same terms, the figure for `Cn1nnc(-c2ccc(N3CCC[C@H](N[C@@H]4CCCC[C@H]4Nc4cc(Br)ccn4)C3)cc2)n1` [Example 501] is 84 nM; for `FC(F)(F)Oc1ccc(-c2cnc(N[C@@H]3CCCC[C@H]3N[C@H]3C[C@@H]4C[C@H]3N(c3cc(Cl)ncn3)C4)o2)cc1` [Example 510] it is 82 nM; for `FC(F)(F)Oc1ccc(-c2cnc(N[C@@H]3CCCC[C@H]3N[C@H]3CCCN(c4cnc(C(F)(F)F)nc4)C3)o2)cc1` [Example 401] it is 1480 nM. The same measure, in the same setting: the figure for `NC(=O)c1cccc(-c2cnc(N[C@@H]3CCCC[C@H]3N[C@H]3C[C@@H]4C[C@H]3N(c3cnc(C(F)(F)F)nc3)C4)o2)c1` [Example 407] is 329 nM. With `CNC(=O)c1cccc(-c2cnc(N[C@@H]3CCCC[C@H]3N[C@H]3CCCN(c4ccc5nc(C)nn5c4)C3)o2)c1` [Example 496], the half-maximal effective concentration (EC50) was determined as 4 nM.

For the compound `Fc1ccccc1-c1cnc(N[C@@H]2CCCC[C@H]2N[C@H]2CCCN(c3cnc(C(F)(F)F)nc3)C2)o1` [Example 402], the concentration for a half-maximal effect (EC50) came to 161 nM. On to `COC(=O)Nc1cccc(-c2ccnc(N[C@@H]3CCCC[C@H]3N[C@H]3CCCN(c4cnc(C(F)(F)F)nc4)C3)c2)c1` [Example 413], for which the EC50 amounted to 6 nM. Same read-out and setting: the figure for `NC(=O)c1cccc(-c2ccnc(N[C@@H]3CCCC[C@H]3N[C@H]3CCCN(c4ccc(-c5noc(C6CC6)n5)cn4)C3)c2)c1` [Example 451] is 4 nM.

For `Cc1nc(-c2ncc(N3CCC[C@H](N[C@@H]4CCCC[C@H]4Nc4cc(-c5cccc(C(N)=O)c5)ccn4)C3)cn2)no1` [Example 463], the EC50 came to 39 nM.

Staying with this assay, now noted: human Y4 stable CHO clonal cells, forskolin + IBMX; read-out: NPY4 cAMP HTRF Agonist Assay EC50.
For the compound `Ic1ccc(N2CCC[C@H](N[C@@H]3CCCC[C@H]3Nc3nccc(-c4ccccc4)n3)C2)cc1` [Example 92, (1R,2R)—N1-((S)-1-(4-Iodophenyl)piperidin-3-yl)-N2-(4-phenylpyrimidin-2-yl)cyclohexane-1,2-diamine bis-trifluoroacetate], the half-maximal effective concentration (EC50) turned out to be 469 nM. On to `COC(=O)Nc1cccc(-c2cnc(N[C@@H]3CCCC[C@H]3N[C@H]3CCCN(c4ccc(C(F)(F)F)cc4)C3)o2)c1` [Example 100, Methyl (3-(2-((1R,2R)-2(S)-1-(4-trifluoromethyl)phenylpiperidin-3-ylamino)cyclohexylamino)oxazol-5-yl)phenylcarbamate], for which the EC50 stood at 3 nM. Still for that read-out and setting: the value for `FC(F)(F)Oc1ccc(-c2cnc(N[C@@H]3CCCC[C@H]3N[C@H]3CCCN(c4ccc(-n5cncn5)cc4)C3)o2)cc1` [Example 89, (1R,2R)—N1-((S)-1-(4-(1H-1,2,4-Triazol-1-yl)phenyl)piperidin-3-yl)-N2-(5-(4-(trifluoromethoxy)phenyl)oxazol-2-yl)cyclohexane-1,2-diamine bis-trifluoroacetate] was 58 nM; that for `O=[N+]([O-])c1ccc(N2CCC[C@H](N[C@@H]3CCCC[C@H]3Nc3ncc(-c4ccc(O)cc4)o3)C2)cc1` [Example 12, 4-(2-((1R,2R)-2-((S)-1-(4-Nitrophenyl)piperidin-3-ylamino)cyclohexylamino)oxazol-5-yl)phenol] was 1 nM; that for `O=[N+]([O-])c1ccc(N2C[C@@H]3C[C@H](N[C@@H]4CCCC[C@H]4Nc4ncc(-c5ccccc5)o4)[C@H]2C3)cc1` [Example 6, (1R,2R)—N1-((1R,4R,6S)-2-(4-Nitrophenyl)-2-azabicyclo[2.2.1]heptan-6-yl)-N2-(5-phenyloxazol-2-yl)cyclohexane-1,2-diamine] was 6 nM. As to `Cc1nnc(-c2ccc(N3CCC[C@H](N[C@@H]4CCCC[C@H]4Nc4ncc(-c5ccc(OC(F)(F)F)cc5)o4)C3)cc2)o1` [Example 85, (1R,2R)—N1-((S)-1-(4-(5-Methyl-1,3,4-oxadiazol-2-yl)phenyl)piperidin-3-yl)-N2-(5-(4-(trifluoromethoxy)phenyl)oxazol-2-yl)cyclohexane-1,2-diamine], the EC50 is 145 nM.

For `O=[N+]([O-])c1cnc(N2CCC[C@H](N[C@@H]3CCCC[C@H]3Nc3ncc(-c4ccc(OC(F)(F)F)cc4)o3)C2)nc1` [Example 78, (1R,2R)—N1-((S)-1-(5-Nitropyrimidin-2-yl)piperidin-3-yl)-N2-(5-(4-(trifluoromethoxy)phenyl)oxazol-2-yl)cyclohexane-1,2-diamine bis-trifluoroacetate], the EC50 was 75 nM. Same read-out and setting: the value for `Cc1cnn(-c2ccc(N3CCC[C@H](N[C@@H]4CCCC[C@H]4Nc4ncc(-c5ccc(OC(F)(F)F)cc5)o4)C3)cc2)c1` [Example 66, (1R,2R)—N1-((S)-1-(4-(4-Methyl-1H-pyrazol-1-yl)phenyl)piperidin-3-yl)-N2-(5-(4-(trifluoromethoxy)phenyl)oxazol-2-yl)cyclohexane-1,2-diamine bis-trifluoroacetate] was 1260 nM.

Turning to `Cc1nnc(-c2ccc(N3CCC[C@H](N[C@@H]4CCCC[C@H]4Nc4nccc(-c5ccccc5)n4)C3)cc2)o1` [Example 84, (1R,2R)—N1-((S)-1-(4-(5-Methyl-1,3,4-oxadiazol-2-yl)phenyl)piperidin-3-yl)-N2-(4-phenylpyrimidin-2-yl)cyclohexane-1,2-diamine bis-trifluoroacetate], the EC50 was found to be 9 nM. Still for that read-out and setting: the value for `O=[N+]([O-])c1ccc(N2CCC[C@H](N[C@@H]3CCCC[C@H]3Nc3ncc(-c4ccc(OC(F)F)cc4)o3)C2)cc1` [Example 13, (1R,2R)—N1-(5-(4-(Difluoromethoxy)phenyl)oxazol-2-yl)-N2-((S)-1-(4-nitrophenyl)piperidin-3-yl)cyclohexane-1,2-diamine] was 3 nM. On the same count and under the same terms, the figure for `N#Cc1ccc(N2CCC[C@H](N[C@@H]3CCCC[C@H]3Nc3nccc(-c4ccc(OC(F)(F)F)cc4)n3)C2)cc1` [Example 59, 4-((S)-3-((1R,2R)-2-(4-(4-(Trifluoromethoxy)phenyl)pyrimidin-2-ylamino)cyclohexylamino)piperidin-1-yl)benzonitrile bis-trifluoroacetate] is 297 nM. Same read-out and setting: the figure for `FC(F)(F)Oc1ccc(-c2cnc(N[C@@H]3CCCC[C@H]3N[C@H]3CCCN(c4ccc(-n5ccc(C(F)(F)F)n5)cc4)C3)o2)cc1` [Example 70, (1R,2R)—N1-(5-(4-(Trifluoromethoxy)phenyl)oxazol-2-yl)-N2-((S)-1-(4-(3-(trifluoromethyl)-1H-pyrazol-1-yl)phenyl)piperidin-3-yl)cyclohexane-1,2-diamine bis-trifluoroacetate] is 799 nM. Regarding `O=[N+]([O-])c1ccc(N2C[C@@H]3C[C@H](N[C@@H]4CCCC[C@H]4Nc4ncc(-c5ccc(O)cc5)o4)[C@H]2C3)cc1` [Example 16, 4-(2-((1R,2R)-2-((1R,4R,6S)-2-(4-Nitrophenyl)-2-azabicyclo[2.2.1]heptan-6-ylamino)cyclohexylamino)oxazol-5-yl)phenol], the EC50 is 6 nM.

The assay is the same for the next values; noted with them: second TABLE 1, R2 is Phenyl-CF3; read-out: hY4 CAMP EC50.
On to `CN(C)C(=O)c1cccc(-c2cnc(N[C@@H]3CCCC[C@H]3N[C@H]3CCCN(c4ccc(C(F)(F)F)cc4)C3)o2)c1` [Example 123], for which the EC50 turned out to be 234 nM.

With `C[C@H](O)c1cccc(-c2ccnc(N[C@@H]3CCCC[C@H]3N[C@H]3CCCN(c4ccc(C(F)(F)F)cc4)C3)c2)c1` [Example 167], the EC50 came to 6 nM. The same measure, in the same setting: the value for `OCCCCCc1ccnc(N[C@@H]2CCCC[C@H]2N[C@H]2CCCN(c3ccc(C(F)(F)F)cc3)C2)c1` [Example 186] was 115 nM. In the case of `CC(C)(O)c1cccc(-c2ccnc(N[C@@H]3CCCC[C@H]3N[C@H]3CCCN(c4ccc(C(F)(F)F)cc4)C3)c2)c1` [Example 126], the EC50 was 48 nM. For `NC(=O)c1cccc(-c2ccnc(N[C@@H]3CCCC[C@H]3N[C@H]3CCCN(c4ccc(C(F)(F)F)cc4)C3)c2)c1` [Example 119], the EC50 was 4 nM.
